Experimental findings from patent US11008323B2, “Substituted tricyclic 1,4-benzodiazepinone derivatives as allosteric modulators of group II metabotropic glutamate receptors” (Domain Therapeutics, priority 2015, dated 2021) are described below.

Structures are written as SMILES. Where only a bound is given, the exact number is not on record here.

The target in one series is T1, human mGluR3 (hmGluR3) (Homo sapiens, UniProt Q14832).
T1 construct: expressed in transfected cells; host or cells: HEK-293 cells, transient co-transfection by electroporation
T1 sequence (Q14832 23-879): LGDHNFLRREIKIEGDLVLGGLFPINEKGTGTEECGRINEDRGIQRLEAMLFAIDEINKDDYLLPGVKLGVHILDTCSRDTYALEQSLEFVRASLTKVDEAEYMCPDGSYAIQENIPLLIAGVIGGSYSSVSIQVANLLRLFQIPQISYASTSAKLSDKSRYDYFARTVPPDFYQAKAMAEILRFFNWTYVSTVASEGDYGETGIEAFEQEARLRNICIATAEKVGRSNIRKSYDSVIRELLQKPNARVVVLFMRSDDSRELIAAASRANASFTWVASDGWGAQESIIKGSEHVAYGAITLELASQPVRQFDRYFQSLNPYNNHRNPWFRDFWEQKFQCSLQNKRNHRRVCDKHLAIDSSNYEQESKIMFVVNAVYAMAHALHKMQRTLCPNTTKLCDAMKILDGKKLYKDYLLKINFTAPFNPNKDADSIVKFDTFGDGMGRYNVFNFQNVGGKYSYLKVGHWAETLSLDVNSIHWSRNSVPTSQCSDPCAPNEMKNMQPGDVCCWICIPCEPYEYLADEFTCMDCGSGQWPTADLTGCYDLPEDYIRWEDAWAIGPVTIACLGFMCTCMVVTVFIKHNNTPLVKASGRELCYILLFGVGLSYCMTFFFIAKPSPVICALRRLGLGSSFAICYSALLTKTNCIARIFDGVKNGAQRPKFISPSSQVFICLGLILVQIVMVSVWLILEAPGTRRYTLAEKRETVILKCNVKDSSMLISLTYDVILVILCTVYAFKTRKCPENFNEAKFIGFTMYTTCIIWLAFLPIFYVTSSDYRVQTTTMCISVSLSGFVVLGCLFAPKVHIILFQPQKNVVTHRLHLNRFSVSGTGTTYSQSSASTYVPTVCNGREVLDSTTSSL
Put plainly: Human mGluR3 positive allosteric modulator evaluation using Ca++ functional assay. The class given is cell-based. The settings on record: hmGluR3 transiently over-expressed in HEK-293 cells; stimulated by EC50 glutamate concentration; intracellular Ca2+ (Fluo4AM, FLIPR Tetra). Summed up:
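Calcium flux (Fluo4, ex 485/em 525 nm) recorded first 10 min with compound alone, then 3 min after an EC50 glutamate challenge, giving agonist and PAM EC50 from 20-concentration sigmoidal fits. Receptor was transiently co-transfected in HEK-293 with chimeric G protein and glutamate transporters.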

Regarding `CN1C(=O)c2cccn2-c2cc(-c3ccc(F)nc3)ccc2C12CC2` [Example 31, 5-Methyl-9-(6-fluoropyridin-3-yl)-spiro[benzo[f]pyrrolo[1,2-a][1,4]diazepine-6,1′-cyclopropan]-4(5H)-one], the melting point fell in the range of 171 to 176 °C. Moreover, the EC50 on human mGluR3 (hmGluR3) is < 100 nM.

`COC(=O)c1ncccc1-c1ccc2c(c1)-n1cccc1C(=O)N(C)C21CC1` [Example 71, 5-Methyl-9-(2-methoxycarbonylpyridin-3-yl)-spiro[benzo[f]pyrrolo[1,2-a][1,4]diazepine-6,1′-cyclopropan]-4(5H)-one] returned a melting point of 198 to 203 °C. The EC50 on human mGluR3 (hmGluR3) was > 1000 nM.

On to `Cc1ncccc1-c1ccc2c(c1)-n1cc(-c3nnco3)cc1C(=O)N(C)C21CC1` [Example 185], for which the melting point is > 250 °C. In addition, at human mGluR3 (hmGluR3), the EC50 was < 100 nM.

`Cc1nc(F)ccc1-c1ccc2c(c1)-n1cccc1C(=O)N(C)C21CC1` [Example 32, 5-Methyl-9-(6-fluoro-2-methylpyridin-3-yl)-spiro[benzo[f]pyrrolo[1,2-a][1,4]diazepine-6,1′-cyclopropan]-4(5H)-one]: the melting point lay within 198 to 202 °C. Also, the EC50 at human mGluR3 (hmGluR3) was < 100 nM.

Turning to `CN1C(=O)c2cccn2-c2cc(-c3cccnc3F)ccc2C12CC2` [Example 33, 5-Methyl-9-(2-fluoropyridin-3-yl)-spiro[benzo[f]pyrrolo[1,2-a][1,4]diazepine-6,1′-cyclopropan]-4(5H)-one], the melting point lay within 158 to 162 °C. At human mGluR3 (hmGluR3), this compound came in with an EC50 of 100 to 1000 nM.

With `Cc1ncoc1-c1ccc2c(c1)-n1cccc1C(=O)N(C)C21CC1` [Example 49, 5-Methyl-9-(4-methyl-oxazol-5-yl)-spiro[benzo[f]pyrrolo[1,2-a][1,4]diazepine-6,1′-cyclopropan]-4(5H)-one], the melting point was 120 to 128 °C. The EC50 at human mGluR3 (hmGluR3) is > 1000 nM.

For `CN1C(=O)c2cccn2-c2cc(-c3ccc(F)nc3)cc(F)c2C12CC2` [Example 74, 7-Fluoro-5-methyl-9-(6-fluoro-pyridin-3-yl)-spiro[benzo[f]pyrrolo[1,2-a][1,4]diazepine-6,1′-cyclopropan]-4(5H)-one], the melting point was in the range of 220 to 225 °C. The EC50 on human mGluR3 (hmGluR3) was < 100 nM.

As for `CC(=O)N1CC=C(c2ccc3c(c2)-n2cccc2C(=O)N(C)C32CC2)CC1` [Example 48, 5-Methyl-9-(1-acetyl-1,2,3,6-tetrahydro-pyridin-4-yl)-spiro[benzo[f]pyrrolo[1,2-a][1,4]diazepine-6,1′-cyclopropan]-4(5H)-one], the melting point lay within 101 to 110 °C. This compound also came in with an EC50 on human mGluR3 (hmGluR3) of 100 to 1000 nM.

Regarding `CN1C(=O)c2cccn2-c2cc(C=CC#N)ccc2C12CC2` (mixture of isomers) [Example 52, 5-Methyl-9-actylonitrile-spiro[benzo[f]pyrrolo[1,2-a][1,4]diazepine-6,1′-cyclopropan]-4(5H)-one], the melting point was in the range of 130 to 138 °C. Moreover, the EC50 at human mGluR3 (hmGluR3) is 100 to 1000 nM.

As to `CN1C(=O)c2cccn2-c2c(ccc(-c3ccc(F)nc3)c2F)C12CC2` [Example 76, 10-Fluoro-5-Methyl-9-(6-fluoro-pyridin-3-yl)-spiro[benzo[f]pyrrolo[1,2-a][1,4]diazepine-6,1′-cyclopropan]-4(5H)-one], the melting point was in the range of 153 to 157 °C. Also, the EC50 on human mGluR3 (hmGluR3) was < 100 nM.

As for `CN1C(=O)c2cc(-c3nnco3)cn2-c2cc(-c3cccnn3)ccc2C12CC2` [Example 193], the melting point was > 250 °C. Moreover, the EC50 at human mGluR3 (hmGluR3) is 100 to 1000 nM.

The compound `CN1C(=O)c2cc(-c3ccccc3)nn2-c2cc(-c3cc[nH]n3)ccc2C12CC2` [Example 136, 9-(1H-pyrazol-3-yl)-5-methyl-2-phenyl-spiro[benzo[f]pyrazolo[1,5-a][1,4]diazepine-6,1′-cyclopropan]-4(5H)-one] registered a melting point of 218 to 224 °C. On human mGluR3 (hmGluR3), the EC50 fell in the range of 100 to 1000 nM.

In turn, `CN1C(=O)c2cccn2-c2cc(-c3cccc(F)n3)ccc2C12CC2` [Example 67, 5-Methyl-9-(6-fluoropyridin-2-yl)-spiro[benzo[f]pyrrolo[1,2-a][1,4]diazepine-6,1′-cyclopropan]-4(5H)-one] yielded a melting point of 106 to 117 °C. This compound also showed an EC50 on human mGluR3 (hmGluR3) of 100 to 1000 nM.

Consider `CN1C(=O)c2cc(-c3ccccc3)cn2-c2cc(-c3ccc(C#N)nc3)ccc2C12CC2` [Example 117, 5-Methyl-2-phenyl-9-(6-cyano-pyridin-3-yl)-spiro[benzo[f]pyrrolo[1,2-a][1,4]diazepine-6,1′-cyclopropan]-4(5H)-one], for which the melting point lay within 200 to 204 °C. The EC50 on human mGluR3 (hmGluR3) fell in the range of 100 to 1000 nM.

With `Cc1cccc2c1-n1cccc1C(=O)N(C)C21CC1` [Example 90, 5,10-Dimethyl-spiro[benzo[f]pyrrolo[1,2-a][1,4]diazepine-6,1′-cyclopropan]-4(5H)-one], the melting point was in the range of 200 to 207 °C. The EC50 at human mGluR3 (hmGluR3) is > 1000 nM.

Turning to `CN1C(=O)c2cccn2-c2ccc(N3CCOCC3)cc2C12CC2` [Example 88, 8-Morpholin-4-yl-5-methyl-spiro[benzo[f]pyrrolo[1,2-a][1,4]diazepine-6,1′-cyclopropan]-4(5H)-one], the melting point lay within 140 to 146 °C. Besides, on human mGluR3 (hmGluR3), the EC50 was > 1000 nM.

In the case of `CN1C(=O)c2cccn2-c2cc(-c3cnccc3C(F)(F)F)ccc2C12CC2` [Example 37, 5-Methyl-9-(4-trifluoromethylpyridin-3-yl)-spiro[benzo[f]pyrrolo[1,2-a][1,4]diazepine-6,1′-cyclopropan]-4(5H)-one], the melting point lay in the range of 67 to 78 °C. The EC50 at human mGluR3 (hmGluR3) is > 1000 nM.

For the compound `CN1C(=O)c2cccn2-c2cc(-c3ccc(F)nc3)c(F)cc2C12CC2` [Example 78, 8-Fluoro-5-methyl-9-(6-fluoro-pyridin-3-yl)-spiro[benzo[f]pyrrolo[1,2-a][1,4]diazepine-6,1′-cyclopropan]-4(5H)-one], the melting point is 185 to 192 °C. At human mGluR3 (hmGluR3), this compound registered an EC50 of 100 to 1000 nM.

`CN1C(=O)c2cc(-c3ccccc3)nn2-c2cc(-c3ccc(N)cc3)ccc2C12CC2` [Example 124, 9-(4-Amino-phenyl)-5-methyl-2-phenyl-spiro[benzo[f]pyrazolo[1,5-a][1,4]diazepine-6,1′-cyclopropan]-4(5H)-one] yielded a melting point of 195 to 209 °C. Besides, at human mGluR3 (hmGluR3), the EC50 was > 1000 nM.

`CN1C(=O)c2cc(-c3ccccc3)nn2-c2cc(-c3ccccc3)ccc2C12CC2` [Example 123, 2,9-Diphenyl-5-methyl-2-spiro[benzo[f]pyrazolo[1,5-a][1,4]diazepine-6,1′-cyclopropan]-4(5H)-one]: the melting point fell in the range of 133 to 140 °C. In addition, the EC50 at human mGluR3 (hmGluR3) was > 1000 nM.

With `Cc1ncccc1-c1ccc2c(c1)-n1cc(C#N)cc1C(=O)N(C)C21CC1` [Example 153], the melting point is > 250 °C. Besides, at human mGluR3 (hmGluR3), the EC50 lay in the range of 100 to 1000 nM.

On to `CN1C(=O)c2cccn2-c2cc(-c3cccc(-c4nnn[nH]4)c3)ccc2C12CC2` [Example 45, 5-Methyl-9-(3-(1H-tetrazol-5-yl)-phenyl)-spiro[benzo[f]pyrrolo[1,2-a][1,4]diazepine-6,1′-cyclopropan]-4(5H)-one], for which the melting point is > 250 °C. At human mGluR3 (hmGluR3), this compound displayed a concentration for a half-maximal effect (EC50) of 100 to 1000 nM.

On to `CN1C(=O)c2cc(-c3ccccc3)cn2-c2cc(-c3cccc(C(=O)O)c3)ccc2C12CC2` [Example 94, 3-(5-methyl-4-oxo-2-phenyl-4,5-dihydrospiro[benzo[f]pyrrolo[1,2-a][1,4]diazepine-6,1′-cyclopropan]-9-yl)benzoic acid], for which the melting point is > 250 °C. The EC50 at human mGluR3 (hmGluR3) is < 100 nM.

With `CN1C(=O)c2cccn2-c2cc(CC#N)ccc2C12CC2` [Example 51, 5-Methyl-9-acetonitrile-spiro[benzo[f]pyrrolo[1,2-a][1,4]diazepine-6,1′-cyclopropan]-4(5H)-one], the melting point was 60 to 69 °C. The EC50 on human mGluR3 (hmGluR3) is > 1000 nM.

`CN1C(=O)c2cccn2-c2c(C#N)cccc2C12CC2` [Example 91, 10-Cyano-5-methyl-spiro[benzo[f]pyrrolo[1,2-a][1,4]diazepine-6,1′-cyclopropan]-4(5H)-one] registered a melting point of 250 °C. The EC50 at human mGluR3 (hmGluR3) is > 1000 nM.

`CN1C(=O)c2cc(-c3ccccc3)nn2-c2cc(-c3cnco3)ccc2C12CC2` [Example 132, 9-(Oxazol-5-yl)-5-methyl-2-phenyl-spiro[benzo[f]pyrazolo[1,5-a][1,4]diazepine-6,1′-cyclopropan]-4(5H)-one] registered a melting point of 214 to 220 °C. In addition, the EC50 on human mGluR3 (hmGluR3) is 100 to 1000 nM.

With `CN1C(=O)c2cc(-c3ccccc3)cn2-c2cc(-c3cnccn3)ccc2C12CC2` [Example 108, 5-Methyl-2-phenyl-9-pyrazin-2-yl-spiro[benzo[f]pyrrolo[1,2-a][1,4]diazepine-6,1′-cyclopropan]-4(5H)-one], the melting point was in the range of 130 to 141 °C. Moreover, at human mGluR3 (hmGluR3), the EC50 was 100 to 1000 nM.

Turning to `CN1C(=O)c2cc(-c3ccccc3)cn2-c2cc(-c3cccnc3F)ccc2C12CC2` [Example 113, 5-Methyl-2-phenyl-9-(2-fluoro-pyridin-3-yl)-spiro[benzo[f]pyrrolo[1,2-a][1,4]diazepine-6,1′-cyclopropan]-4(5H)-one], the melting point lay within 143 to 149 °C. The half-maximal effective concentration (EC50) on human mGluR3 (hmGluR3) lay in the range of 100 to 1000 nM.

With `CN1C(=O)c2cccn2-c2cc(-c3ccnc(C(F)(F)F)c3)ccc2C12CC2` [Example 35, 5-Methyl-9-(2-trifluoromethylpyridin-4-yl)-spiro[benzo[f]pyrrolo[1,2-a][1,4]diazepine-6,1′-cyclopropan]-4(5H)-one], the melting point fell in the range of 169 to 174 °C. This compound also had an EC50 at human mGluR3 (hmGluR3) of 100 to 1000 nM.

As for `CN1C(=O)c2cc(-c3ccccc3)cn2-c2cc(-c3ccc(F)nc3)ccc2C12CC2` [Example 106, 5-Methyl-2-phenyl-9-(6-fluoro-pyridin-3-yl)-spiro[benzo[f]pyrrolo[1,2-a][1,4]diazepine-6,1′-cyclopropan]-4(5H)-one], the melting point lay in the range of 177 to 184 °C. The concentration giving a half-maximal response (EC50) at human mGluR3 (hmGluR3) is < 100 nM.
